Experimental data: paper PMC2691528 (European Journal of Nuclear Medicine and Molecular Imaging, 2009)
Entries after “also recorded” stand apart in the source; their conditions may differ.

How the values were obtained:
[1] = Ex vivo biodistribution of 11C-SA4503 in C6 glioma-bearing Wistar rats; settings: for SUV of 11C, C6 tumour / SUV of 11C, Cerebellum / SUV of 11C, Cerebral cortex: 60 min after injection
[2] = molecular target: cellular sigma receptors (C6 rat glioma cells) (Rattus norvegicus, UniProt Q9R0C9); experiment: Competition with 11C-SA4503 binding to intact C6 glioma cell monolayers; settings: for competition with 11C-SA4503 for binding to cellular sigma receptors: 50 µM competitor added to normal growth medium (DMEM with 7.5% FCS); for reduction of 11C-SA4503 radioligand binding to C6 cells: 50 µM competitor, steroid-free medium; for rank order of potency as competitor of 11C-SA4503 binding: C6 cells, both normal and steroid-depleted medium, 50 µM
cellular sigma receptors (C6 rat glioma cells), sequence (Q9R0C9 whole entry): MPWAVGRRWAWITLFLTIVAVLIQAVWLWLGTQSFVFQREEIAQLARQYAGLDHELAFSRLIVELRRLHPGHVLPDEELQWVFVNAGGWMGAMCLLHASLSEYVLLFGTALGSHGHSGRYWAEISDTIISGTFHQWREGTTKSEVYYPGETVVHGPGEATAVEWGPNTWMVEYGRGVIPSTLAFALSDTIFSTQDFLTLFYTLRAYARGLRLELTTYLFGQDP

[3] = test system: endogenous steroid levels in the brain (progesterone, pregnenolone); settings: male rats, sodium pentobarbital 0.2 mmol/kg i.p.; cited from earlier work
Plasma progesterone = settings: female rats; cited from earlier work
[4] = molecular target: sigma-1 receptors in tumour and brain (Rattus norvegicus, UniProt Q9R0C9); experiment: microPET scanning of 11C-SA4503 in C6 glioma-bearing Wistar rats
sigma-1 receptors in tumour and brain, sequence (Q9R0C9 whole entry): as above

[5] = prolonged pentobarbital anaesthesia, n = 5
[6] = prolonged pentobarbital anaesthesia vs control
[7] = progesterone 3 x 10 mg i.p. in arachid oil vs arachid oil

For `COc1ccc(CCN2CCN(CCCc3ccccc3)CC2)cc1OC` [11C-SA4503], the “SUV of 11C, C6 tumour” value ([1]; control (arachid oil), n = 4) was 0.83, the “SUV of 11C, Cerebellum” value ([1]; control (arachid oil), n = 4) was 1.66 and the “SUV of 11C, Cerebral cortex” value ([1]; control (arachid oil), n = 4) was 1.50. The “SUV of 11C, C6 tumour” value [1, 5] was 1.52, the “SUV of 11C, Cerebellum” value [1, 5] was 2.41 and the “SUV of 11C, Cerebral cortex” value [1, 5] was 2.38.

For `C[C@]12CC[C@H](OS(=O)(=O)[O-])CC1=CC[C@@H]1[C@@H]2CC[C@]2(C)C(=O)CC[C@@H]12.[Na+]` [DHEA-S, dehydroepiandrosterone 3-sulphate sodium salt], the “competition with 11C-SA4503 for binding to cellular sigma receptors” value (“competition with 11C-SA4503 for binding” below) [2] was “no statistically significant effect”, the “reduction of 11C-SA4503 radioligand binding to C6 cells” value [2] was “significant decrease” and the “rank order of potency as competitor of 11C-SA4503 binding” value (shortened to “rank order of potency”) [2] was “progesterone > androstanolone = testosterone = allopregnanolone > DHEA-S”.

With `C[C@]12CCC(=O)C[C@@H]1CC[C@@H]1[C@@H]2CC[C@]2(C)[C@@H](O)CC[C@@H]12` [androstanolone, 5α-androstan-17β-ol-3-one] the “competition with 11C-SA4503 for binding” value [2] was “measurable competition” and the “rank order of potency” value [2] was “progesterone > androstanolone = testosterone = allopregnanolone > DHEA-S”.

For `CCCC(C)C1(CC)C(=O)NC(=O)NC1=O` (stereo not drawn) [pentobarbital], the “inhibition of 11C-SA4503 binding to C6 cells” value ([2]; up to 1 mM in normal medium) is given as “did not result in any inhibition”, the “decline of endogenous steroid levels in the brain (progesterone, pregnenolone)” value [3] is given as > 70% and the “effect on plasma progesterone” value (Plasma progesterone) is given as “decreased”. The “effect on kinetics of 11C-SA4503 radioactivity in blood pool (right lung)” value ([4]; prolonged pentobarbital anaesthesia (>3.5 h) vs short (<20 min)) was “unaffected; also recorded: did not significantly affect”, the “effect on amount of 11C-SA4503 radioactivity in the liver (biodistribution)” value [1, 6] was “significantly decreased” and the “effect on plasma levels of 11C-SA4503 radioactivity (biodistribution)” value [1, 6] was “not changed”. The “effect on sigma ligand binding in C6 tumour, brain (cerebellum, cerebral cortex), bone, bone marrow, large intestine, blood cells and spleen (biodistribution)” value [1, 6] was “significant increase”.

With `CC(=O)[C@H]1CC[C@H]2[C@@H]3CCC4=CC(=O)CC[C@]4(C)[C@H]3CC[C@]12C` [progesterone] the “effect on 11C-SA4503 tracer kinetics in blood pool (microPET)” value [4, 7] was “did not significantly affect; also recorded: not accompanied by any significant change”, the “effect on 11C-SA4503 tracer kinetics in brain (microPET)” value [4, 7] was “did not significantly affect” and the “decrease of sigma ligand (11C-SA4503) binding in C6 tumour (biodistribution)” value ([1]; progesterone 3 x 10 mg i.p. vs arachid oil, 60 min after tracer) was 31%.

With `C[C@]12CC[C@H]3[C@@H](CCC4=CC(=O)CC[C@@]43C)[C@@H]1CC[C@@H]2O` [testosterone] the “competition with 11C-SA4503 for binding” value [2] was “measurable competition”, the “reduction of 11C-SA4503 radioligand binding to C6 cells” value [2] was 40% and the “rank order of potency” value [2] was “progesterone > androstanolone = testosterone = allopregnanolone > DHEA-S”.
